Results as given in patent publication US11254665B2, “Crystalline sulfamide compound” (CHIA TAI TIANQING PHARMACEUTICAL GROUP CO., LTD., priority 2017, dated 2022).

How the values were obtained:
Format in all cases: physicochemical
[1] = Stability influencing factors: high humidity test
Protocol: (§1) In accordance with “Stability Testing of New Drug Substances and Products” in ICH Q1A and “Guidelines for the Stability Testing of Drug Substances and Preparations” in Pharmacopoeia of China, fourth part, 2015 edition, 9001, the stability influencing factors were tested for the crystal of the monohydrate formula II, including high temperature, high humidity and light tests.
(§2) In accordance with “Stability Testing of New Drug Substances and Products” in ICH Q1A and “Guidelines for the Stability Testing of Drug Substances and Preparations” in Pharmacopoeia of China, fourth part, 2015 edition, 9001, the stability influencing factors were tested for the crystal of the compound of formula I, including high temperature and high humidity tests.
(§3) In accordance with “Stability Testing of New Drug Substances and Products” in ICH Q1A and “Guidelines for the Stability Testing of Drug Substances and Preparations” in Pharmacopoeia of China, fourth part, 2015 edition, 9001, the stability influencing factors were tested for the amorphous form of the compound of formula I, including high temperature and high humidity tests.

[2] = Stability influencing factors: high temperature test
Protocol: as §1, §2, §3

[3] = Stability influencing factors: light test
Protocol: as §1

With `N#Cc1ccnc(N2[C@H](C(=O)N(c3cccc(F)c3)[C@H](C(=O)NC3CC(F)(F)C3)c3ccccc3Cl)CCS2(=O)=O)c1` [crystal of the compound of formula I] the Appearance ([1]; 0 day) was “White”, the “Total impurities (%)” value ([1]; 0 day) was 0.39% and the “Water (%)” value ([1]; 0 day) was 0.45%. The Appearance ([1]; 75% RH, 5 day) was “White”, the “Total impurities (%)” value ([1]; 75% RH, 5 day) was 0.43% and the “Water (%)” value ([1]; 75% RH, 5 day) was 0.94%. For the same compound, the Appearance ([1]; 75% RH, 12 day) was “White”, the “Total impurities (%)” value ([1]; 75% RH, 12 day) was 0.37% and the “Water (%)” value ([1]; 75% RH, 12 day) was 1.16%. The Appearance ([1]; 92.5% RH, 5 day) was “White”, the “Total impurities (%)” value ([1]; 92.5% RH, 5 day) was 0.47% and the “Water (%)” value ([1]; 92.5% RH, 5 day) was 1.58%. The Appearance ([1]; 92.5% RH, 12 day) was “White”, the “Total impurities (%)” value ([1]; 92.5% RH, 12 day) was 0.37% and the “Water (%)” value ([1]; 92.5% RH, 12 day) was 1.75%. The Appearance ([2]; 0 day) was “White”, the “Total impurities (%)” value ([2]; 0 day) was 0.39% and the “Water (%)” value ([2]; 0 day) was 0.45%. For the same compound, the Appearance ([2]; 40° C., 5 day) was “White”, the “Total impurities (%)” value ([2]; 40° C., 5 day) was 0.42% and the “Water (%)” value ([2]; 40° C., 5 day) was 0.85%. For the same compound, the Appearance ([2]; 40° C., 12 day) was “White”, the “Total impurities (%)” value ([2]; 40° C., 12 day) was 0.37% and the “Water (%)” value ([2]; 40° C., 12 day) was 0.85%. The Appearance ([2]; 60° C., 5 day) was “White”, the “Total impurities (%)” value ([2]; 60° C., 5 day) was 0.63% and the “Water (%)” value ([2]; 60° C., 5 day) was 0.59%. The Appearance ([2]; 60° C., 12 day) was “White”, the “Total impurities (%)” value ([2]; 60° C., 12 day) was 0.54% and the “Water (%)” value ([2]; 60° C., 12 day) was 0.73%.

With `N#Cc1ccnc(N2[C@H](C(=O)N(c3cccc(F)c3)[C@H](C(=O)NC3CC(F)(F)C3)c3ccccc3Cl)CCS2(=O)=O)c1` [crystal of the monohydrate of formula II] the Appearance ([1]; 0 day) was “White”, the “Enantiomers (%)” value ([1]; 0 day) was 0.01% and the “Total impurities (%)” value ([1]; 0 day) was 0.38%. The “Total of diastereoisomers (%)” value ([1]; 0 day) was 0.05%, the “Water (%)” value ([1]; 0 day) was 3.10% and the Appearance ([1]; 75% RH, 5 day) was “White”. The “Enantiomers (%)” value ([1]; 75% RH, 5 day) was 0.01%, the “Total impurities (%)” value ([1]; 75% RH, 5 day) was 0.44% and the “Total of diastereoisomers (%)” value ([1]; 75% RH, 5 day) was 0.05%. For the same compound, the “Water (%)” value ([1]; 75% RH, 5 day) was 2.69%, the Appearance ([1]; 75% RH, 10 day) was “White” and the “Enantiomers (%)” value ([1]; 75% RH, 10 day) was 0.01%. The “Total impurities (%)” value ([1]; 75% RH, 10 day) was 0.50%, the “Total of diastereoisomers (%)” value ([1]; 75% RH, 10 day) was 0.05% and the “Water (%)” value ([1]; 75% RH, 10 day) was 2.53%. The Appearance ([1]; 92.5% RH, 5 day) was “White”, the “Enantiomers (%)” value ([1]; 92.5% RH, 5 day) was 0.01% and the “Total impurities (%)” value ([1]; 92.5% RH, 5 day) was 0.49%. The “Total of diastereoisomers (%)” value ([1]; 92.5% RH, 5 day) was 0.04%, the “Water (%)” value ([1]; 92.5% RH, 5 day) was 2.72% and the Appearance ([1]; 92.5% RH, 10 day) was “White”. For the same compound, the “Enantiomers (%)” value ([1]; 92.5% RH, 10 day) was 0.01%, the “Total impurities (%)” value ([1]; 92.5% RH, 10 day) was 0.49% and the “Total of diastereoisomers (%)” value ([1]; 92.5% RH, 10 day) was 0.05%. For the same compound, the “Water (%)” value ([1]; 92.5% RH, 10 day) was 2.42%, the Appearance ([2]; 0 day) was “White” and the “Enantiomers (%)” value ([2]; 0 day) was 0.01%. For the same compound, the “Total impurities (%)” value ([2]; 0 day) was 0.38%, the “Total of diastereoisomers (%)” value ([2]; 0 day) was 0.05% and the “Water (%)” value ([2]; 0 day) was 3.10%. For the same compound, the Appearance ([2]; 40° C., 5 day) was “White”, the “Enantiomers (%)” value ([2]; 40° C., 5 day) was 0.01% and the “Total impurities (%)” value ([2]; 40° C., 5 day) was 0.45%. The “Total of diastereoisomers (%)” value ([2]; 40° C., 5 day) was 0.05%, the “Water (%)” value ([2]; 40° C., 5 day) was 2.69% and the Appearance ([2]; 40° C., 10 day) was “White”. For the same compound, the “Enantiomers (%)” value ([2]; 40° C., 10 day) was 0.01%, the “Total impurities (%)” value ([2]; 40° C., 10 day) was 0.47% and the “Total of diastereoisomers (%)” value ([2]; 40° C., 10 day) was 0.05%. The “Water (%)” value ([2]; 40° C., 10 day) was 2.45%, the Appearance ([2]; 60° C., 5 day) was “White” and the “Total impurities (%)” value ([2]; 60° C., 5 day) was 0.48%. For the same compound, the “Total of diastereoisomers (%)” value ([2]; 60° C., 5 day) was 0.05%, the “Water (%)” value ([2]; 60° C., 5 day) was 2.67% and the Appearance ([2]; 60° C., 10 day) was “White”. For the same compound, the “Enantiomers (%)” value ([2]; 60° C., 10 day) was 0.01%, the “Total impurities (%)” value ([2]; 60° C., 10 day) was 0.47% and the “Total of diastereoisomers (%)” value ([2]; 60° C., 10 day) was 0.05%. The “Water (%)” value ([2]; 60° C., 10 day) was 2.51%, the Appearance ([3]; 0 day) was “White” and the “Enantiomers (%)” value ([3]; 0 day) was 0.01%. For the same compound, the “Total impurities (%)” value ([3]; 0 day) was 0.38%, the “Total of diastereoisomers (%)” value ([3]; 0 day) was 0.05% and the “Water (%)” value ([3]; 0 day) was 3.10%. For the same compound, the Appearance ([3]; Lighting, 5 day) was “White”, the “Enantiomers (%)” value ([3]; Lighting, 5 day) was 0.01% and the “Total impurities (%)” value ([3]; Lighting, 5 day) was 0.56%. For the same compound, the “Total of diastereoisomers (%)” value ([3]; Lighting, 5 day) was 0.05%, the “Water (%)” value ([3]; Lighting, 5 day) was 2.72% and the Appearance ([3]; Lighting, 10 day) was “White”. The “Enantiomers (%)” value ([3]; Lighting, 10 day) was 0.01%, the “Total impurities (%)” value ([3]; Lighting, 10 day) was 0.63% and the “Total of diastereoisomers (%)” value ([3]; Lighting, 10 day) was 0.05%. The “Water (%)” value ([3]; Lighting, 10 day) was 2.47%, the Appearance ([3]; shading, 5 day) was “White” and the “Enantiomers (%)” value ([3]; shading, 5 day) was 0.01%. The “Total impurities (%)” value ([3]; shading, 5 day) was 0.49%, the “Total of diastereoisomers (%)” value ([3]; shading, 5 day) was 0.05% and the “Water (%)” value ([3]; shading, 5 day) was 2.73%. The Appearance ([3]; shading, 10 day) was “White”, the “Enantiomers (%)” value ([3]; shading, 10 day) was 0.01% and the “Total impurities (%)” value ([3]; shading, 10 day) was 0.47%. The “Total of diastereoisomers (%)” value ([3]; shading, 10 day) was 0.05% and the “Water (%)” value ([3]; shading, 10 day) was 2.55%.
